From patent US12692238B2, “Substituted pyridazinone herbicides” (FMC CORPORATION, priority 2020, dated 2026)

Legend:
Format in all cases: in vivo
[1] = system: goosegrass (Eleusine indica); assay: Test A preemergence, goosegrass; details: 0 to 100 scale, 10 days
Text: (§1) Seeds of plant species selected from barnyardgrass (Echinochloa crus-galli), blackgrass (Alopecurus myosuroides), corn (Zea mays), foxtail, giant (giant foxtail, Setaria faberi), foxtail, green (green foxtail, Setaria viridis), goosegrass (Eleusine indica), kochia (Bassia scoparia), oat, wild (wild oat, Avena fatua), palmer amaranth (pigweed, palmer, Amaranthus palmeri), redroot pigweed (Amaranthus retroflexus), ragweed (common ragweed, Ambrosia artemisiifolia), ryegrass, Italian (Italian ryegrass, Lolium multiflorum), and soybean (Glycine max) were planted into a blend of loam soil and sand and treated preemergence with a directed soil spray using test chemicals formulated in a non-phytotoxic solvent mixture which included a surfactant.
(§2) At the same time, plants selected from these crop and weed species and also wheat (Triticum aestivum), galium (catchweed bedstraw, Galium aparine) and horseweed (Erigeron canadensis) were planted in pots containing the same blend of loam soil and sand and treated with postemergence applications of test chemicals formulated in the same manner. Plants ranged in height from 2 to 10 cm and were in the one- to two-leaf stage for the postemergence treatment. Treated plants and untreated controls were maintained in a greenhouse for 10 days, after which time all treated plants were compared to untreated controls and visually evaluated for injury. Plant response ratings, summarized in Table A, are based on a 0 to 100 scale where 0 is no effect and 100 is complete control. A dash (-) response means no test result.

[2] = system: wheat (Triticum aestivum); assay: Test A preemergence, wheat; details: 125 g ai/ha, 0 to 100 scale, 10 days
[3] = system: ryegrass, Italian (Italian ryegrass, Lolium multiflorum); assay: Test A postemergence, ryegrass, Italian; details: 10 days
In short: (§3)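 Test chemicals, formulated in a non-phytotoxic solvent mixture with surfactant, are applied either as a directed preemergence soil spray or postemergence to seedlings at the one- to two-leaf stage. Injury is scored visually after 10 days, 0 = no effect to 100 = complete control.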

[4] = system: foxtail, giant (giant foxtail, Setaria faberi); assay: Test A preemergence, foxtail, giant; details: 0 to 100 scale, 10 days
In short: as §3

[5] = system: soybean (Glycine max); assay: Test A preemergence, soybean; details: 0 to 100 scale, 10 days
Text: as §1, §2

[6] = system: oat, wild (wild oat, Avena fatua); assay: Test A preemergence, oat, wild; details: 0 to 100 scale, 10 days
Text: as §1, §2

[7] = system: corn (Zea mays); assay: Test A postemergence, corn; details: 10 days
In short: as §3

[8] = system: blackgrass (Alopecurus myosuroides); assay: Test A preemergence, blackgrass; details: 0 to 100 scale, 10 days
Text: as §1, §2

[9] = system: blackgrass (Alopecurus myosuroides); assay: Test A postemergence, blackgrass; details: 10 days
In short: as §3

[10] = system: ragweed (common ragweed, Ambrosia artemisiifolia); assay: Test A preemergence, ragweed; details: 0 to 100 scale, 10 days
In short: as §3

[11] = system: ragweed (common ragweed, Ambrosia artemisiifolia); assay: Test A postemergence, ragweed; details: 10 days
In short: as §3

[12] = system: wheat (Triticum aestivum); assay: Test A postemergence, wheat; details: 10 days
In short: as §3

[13] = system: goosegrass (Eleusine indica); assay: Test A postemergence, goosegrass; details: 10 days
Text: as §1, §2

[14] = system: ryegrass, Italian (Italian ryegrass, Lolium multiflorum); assay: Test A preemergence, ryegrass, Italian; details: 0 to 100 scale, 10 days
In short: as §3

[15] = system: horseweed (Erigeron canadensis); assay: Test A postemergence, horseweed; details: 10 days
Text: as §1, §2

[16] = system: rice (Oryza sativa); assay: Test B flooded paddy test, rice; details: 250 g ai/ha, Flood; visually evaluated after 10 to 14 days
In short: (§4)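 Greenhouse paddy assay in which test compounds were dosed into floodwater standing 3 cm above the soil. Plants were at the 2-leaf stage, the water level was kept constant, and effects were rated visually 10–14 days later on a 0–100 scale relative to controls.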

[17] = system: barnyardgrass (Echinochloa crus-galli); assay: Test B flooded paddy test, barnyardgrass; details: 250 g ai/ha, Flood; visually evaluated after 10 to 14 days
In short: as §4

[18] = system: palmer amaranth (pigweed, palmer, Amaranthus palmeri); assay: Test A preemergence, palmer amaranth; details: 0 to 100 scale, 10 days
Text: as §1, §2

[19] = system: soybean (Glycine max); assay: Test A postemergence, soybean; details: 10 days
Text: as §1, §2

[20] = system: kochia (Bassia scoparia); assay: Test A preemergence, kochia; details: 0 to 100 scale, 10 days
In short: as §3

[21] = system: palmer amaranth (pigweed, palmer, Amaranthus palmeri); assay: Test A postemergence, palmer amaranth; details: 10 days
Text: as §1, §2

[22] = system: sedge, umbrella (small-flower umbrella sedge, Cyperus difformis); assay: Test B flooded paddy test, sedge, umbrella; details: 250 g ai/ha, Flood; visually evaluated after 10 to 14 days
In short: as §4

[23] = system: foxtail, giant (giant foxtail, Setaria faberi); assay: Test A postemergence, foxtail, giant; details: 10 days
In short: as §3

[24] = system: kochia (Bassia scoparia); assay: Test A postemergence, kochia; details: 10 days
In short: as §3

[25] = system: ducksalad (Heteranthera limosa); assay: Test B flooded paddy test, ducksalad; details: 250 g ai/ha, Flood; visually evaluated after 10 to 14 days
In short: as §4

[26] = system: corn (Zea mays); assay: Test A preemergence, corn; details: 0 to 100 scale, 10 days
Text: as §1, §2

[27] = system: oat, wild (wild oat, Avena fatua); assay: Test A postemergence, oat, wild; details: 10 days
Text: as §1, §2

[28] = system: galium (catchweed bedstraw, Galium aparine); assay: Test A postemergence, galium; details: 10 days
In short: as §3

[29] = 31 g ai/ha, postemergence, 0 to 100 scale (0 no effect, 100 complete control)
[30] = Postemergence, 125 g ai/ha, 0 to 100 scale

Q: With `Cc1cc(C)c2cc3ccccc3c(-c3c(OCOC(=O)C(C)(C)C)c(Cl)nn(C)c3=O)c2c1` [Compound 20] as the compound, how does the “Plant response rating, Goosegrass” value ([1]; 31 g ai/ha) read?
A: 0

Q: And the “Plant response rating, Goosegrass” value ([1]; 125 g ai/ha)?
A: 0

Q: And the “Plant response rating, Wheat” value [2]?
A: 0

Q: And the “Plant response rating, Ryegrass, Italian” value [3, 29]?
A: 0

Q: And the “Plant response rating, Ryegrass, Italian” value [3, 30]?
A: 0

Q: And the “Plant response rating, Foxtail, Giant” value ([4]; 31 g ai/ha)?
A: 0

Q: What about the “Plant response rating, Foxtail, Giant” value ([4]; 125 g ai/ha) of the same compound?
A: 20

Q: What about the “Plant response rating, Soybean” value ([5]; 31 g ai/ha) of the same compound?
A: 0

Q: What about the “Plant response rating, Soybean” value ([5]; 125 g ai/ha) of the same compound?
A: 0

Q: What about the “Plant response rating, Oat, Wild” value ([6]; 31 g ai/ha) of the same compound?
A: 0

Q: And the “Plant response rating, Oat, Wild” value ([6]; 125 g ai/ha)?
A: 0

Q: And the “Plant response rating, Corn” value [7, 29]?
A: 10

Q: What about the “Plant response rating, Corn” value [7, 30] of the same compound?
A: 20

Q: And the “Plant response rating, Blackgrass” value ([8]; 31 g ai/ha)?
A: 0

Q: What about the “Plant response rating, Blackgrass” value ([8]; 125 g ai/ha) of the same compound?
A: 10

Q: And the “Plant response rating, Blackgrass” value [9, 29]?
A: 0

Q: What about the “Plant response rating, Blackgrass” value [9, 30] of the same compound?
A: 0

Q: And the “Plant response rating, Ragweed” value ([10]; 31 g ai/ha)?
A: 0

Q: What about the “Plant response rating, Ragweed” value ([10]; 125 g ai/ha) of the same compound?
A: 50

Q: And the “Plant response rating, Ragweed” value [11, 29]?
A: 70

Q: What about the “Plant response rating, Ragweed” value [11, 30] of the same compound?
A: 70

Q: And the “Plant response rating, Wheat” value [12, 29]?
A: 0

Q: And the “Plant response rating, Wheat” value [12, 30]?
A: 0

Q: What about the “Plant response rating, Goosegrass” value [13, 29] of the same compound?
A: 30

Q: And the “Plant response rating, Goosegrass” value [13, 30]?
A: 30

Q: What about the “Plant response rating, Ryegrass, Italian” value ([14]; 31 g ai/ha) of the same compound?
A: 0

Q: What about the “Plant response rating, Ryegrass, Italian” value ([14]; 125 g ai/ha) of the same compound?
A: 0

Q: What about the “Plant response rating, Horseweed” value [15, 29] of the same compound?
A: 90

Q: And the “Plant response rating, Horseweed” value [15, 30]?
A: 80

Q: What about the “Plant response rating, Rice (0 to 100 scale where 0 is no effect and 100 is complete control)” value [16] of the same compound?
A: 0

Q: And the “Plant response rating, Barnyardgrass (0 to 100 scale where 0 is no effect and 100 is complete control)” value [17]?
A: 25

Q: And the “Plant response rating, Pigweed, Palmer” value ([18]; 31 g ai/ha)?
A: 30

Q: What about the “Plant response rating, Pigweed, Palmer” value ([18]; 125 g ai/ha) of the same compound?
A: 60

Q: And the “Plant response rating, Soybean” value [19, 29]?
A: 0

Q: What about the “Plant response rating, Soybean” value [19, 30] of the same compound?
A: 0

Q: What about the “Plant response rating, Kochia” value ([20]; 31 g ai/ha) of the same compound?
A: 0

Q: What about the “Plant response rating, Kochia” value ([20]; 125 g ai/ha) of the same compound?
A: 0

Q: What about the “Plant response rating, Pigweed, Palmer” value [21, 29] of the same compound?
A: 50

Q: And the “Plant response rating, Pigweed, Palmer” value [21, 30]?
A: 50

Q: And the “Plant response rating, Sedge, Umbrella (0 to 100 scale where 0 is no effect and 100 is complete control)” value [22]?
A: 90

Q: And the “Plant response rating, Foxtail, Giant” value [23, 29]?
A: 20

Q: And the “Plant response rating, Foxtail, Giant” value [23, 30]?
A: 30

Q: What about the “Plant response rating, Kochia” value [24, 29] of the same compound?
A: 40

Q: And the “Plant response rating, Kochia” value [24, 30]?
A: 60

Q: And the “Plant response rating, Ducksalad (0 to 100 scale where 0 is no effect and 100 is complete control)” value [25]?
A: 100

Q: And the “Plant response rating, Corn” value ([26]; 31 g ai/ha)?
A: 0

Q: What about the “Plant response rating, Corn” value ([26]; 125 g ai/ha) of the same compound?
A: 0

Q: What about the “Plant response rating, Oat, Wild” value [27, 29] of the same compound?
A: 0

Q: What about the “Plant response rating, Oat, Wild” value [27, 30] of the same compound?
A: 0

Q: And the “Plant response rating, Galium” value [28, 29]?
A: 50

Q: What about the “Plant response rating, Galium” value [28, 30] of the same compound?
A: 50

Q: What does the source list for `Cc1ccc2cc3ccc(F)cc3c(-c3c(OCOC(=O)N(C)C)c(C)nn(C)c3=O)c2c1` [Compound 16]?
A: Plant response rating, Goosegrass ([1]; 31 g ai/ha): 0; Plant response rating, Goosegrass ([1]; 125 g ai/ha): 0; Plant response rating, Wheat [2]: 0; Plant response rating, Ryegrass, Italian [3, 29]: 0; Plant response rating, Ryegrass, Italian [3, 30]: 0; Plant response rating, Foxtail, Giant ([4]; 31 g ai/ha): 0; Plant response rating, Foxtail, Giant ([4]; 125 g ai/ha): 0; Plant response rating, Soybean ([5]; 31 g ai/ha): 0; Plant response rating, Soybean ([5]; 125 g ai/ha): 0; Plant response rating, Oat, Wild ([6]; 31 g ai/ha): 0; Plant response rating, Oat, Wild ([6]; 125 g ai/ha): 0; Plant response rating, Corn [7, 29]: 0; Plant response rating, Corn [7, 30]: 0; Plant response rating, Blackgrass ([8]; 31 g ai/ha): 0; Plant response rating, Blackgrass ([8]; 125 g ai/ha): 0; Plant response rating, Blackgrass [9, 29]: 0; Plant response rating, Blackgrass [9, 30]: 0; Plant response rating, Ragweed ([10]; 31 g ai/ha): 0; Plant response rating, Ragweed ([10]; 125 g ai/ha): 0; Plant response rating, Ragweed [11, 29]: 10; Plant response rating, Ragweed [11, 30]: 30; Plant response rating, Wheat [12, 29]: 0; Plant response rating, Wheat [12, 30]: 0; Plant response rating, Goosegrass [13, 29]: 0; Plant response rating, Goosegrass [13, 30]: 0; Plant response rating, Ryegrass, Italian ([14]; 31 g ai/ha): 0; Plant response rating, Ryegrass, Italian ([14]; 125 g ai/ha): 0; Plant response rating, Horseweed [15, 29]: 10; Plant response rating, Horseweed [15, 30]: 10; Plant response rating, Rice (0 to 100 scale where 0 is no effect and 100 is complete control) [16]: 0; Plant response rating, Barnyardgrass (0 to 100 scale where 0 is no effect and 100 is complete control) [17]: 0; Plant response rating, Pigweed, Palmer ([18]; 31 g ai/ha): 10; Plant response rating, Pigweed, Palmer ([18]; 125 g ai/ha): 0; Plant response rating, Soybean [19, 29]: 10; Plant response rating, Soybean [19, 30]: 30; Plant response rating, Kochia ([20]; 31 g ai/ha): 0; Plant response rating, Kochia ([20]; 125 g ai/ha): 0; Plant response rating, Pigweed, Palmer [21, 29]: 100; Plant response rating, Pigweed, Palmer [21, 30]: 60; Plant response rating, Sedge, Umbrella (0 to 100 scale where 0 is no effect and 100 is complete control) [22]: 0; Plant response rating, Foxtail, Giant [23, 29]: 0; Plant response rating, Foxtail, Giant [23, 30]: 20; Plant response rating, Kochia [24, 29]: 60; Plant response rating, Kochia [24, 30]: 80; Plant response rating, Ducksalad (0 to 100 scale where 0 is no effect and 100 is complete control) [25]: 0; Plant response rating, Corn ([26]; 31 g ai/ha): 0; Plant response rating, Corn ([26]; 125 g ai/ha): 0; Plant response rating, Oat, Wild [27, 29]: 0; Plant response rating, Oat, Wild [27, 30]: 0; Plant response rating, Galium [28, 29]: 0; Plant response rating, Galium [28, 30]: 50
